For nine molecules, inhibition in vivo and Time results are on record in ChEMBL document CHEMBL3046740, “Lonazolac analogues: molecular modeling, synthesis, and in vivo anti-inflammatory activity” (2009).

Type in all cases: functional
Assay [1] deals with Rattus norvegicus. Kind of assay: Anti-inflammatory activity in Rattus norvegicus albino (rat) assessed as inhibition of carrageenan-induced paw edema at 50 mg/kg, po administered 30 min before carrageenan challenge measured after 3 hr.
For assay [2], the system named is Rattus norvegicus. The experiment in a line: Anti-inflammatory activity in Rattus norvegicus albino (rat) assessed as inhibition of carrageenan-induced paw edema at 50 mg/kg, po administered 30 min before carrageenan challenge measured after 1 hr. A general note: The carrageenan paw model is a standard test of acute inflammation.
Assay [3] relates to Rattus norvegicus. The experiment in a line: Anti-inflammatory activity in Rattus norvegicus albino (rat) assessed as inhibition of carrageenan-induced paw edema at 50 mg/kg, po administered 30 min before carrageenan challenge measured after 4 hr.
Assay [4] concerns Mus musculus. Kind of assay: Analgesic activity in Mus musculus (mouse) assessed as paw withdrawal latency time at 50 mg/kg, ip after 30 min. The settings on record: route intraperitoneal.
Assay [5] concerns Rattus norvegicus. The experiment in a line: Anti-inflammatory activity in Rattus norvegicus albino (rat) assessed as inhibition of carrageenan-induced paw edema at 50 mg/kg, po administered 30 min before carrageenan challenge measured after 2 hr.
Assay [6] concerns Rattus norvegicus. The experiment in a line: Anti-inflammatory activity in Rattus norvegicus albino (rat) assessed as inhibition of carrageenan-induced paw edema at 50 mg/kg, po administered 30 min before carrageenan challenge measured after 24 hr.
Assay [7] has as its system Rattus norvegicus. Kind of assay: Anti-inflammatory activity in Rattus norvegicus albino (rat) assessed as inhibition of carrageenan-induced paw edema at 10 mg/kg, po administered 30 min before carrageenan challenge measured after 24 hr.
The subject of assay [8] is Rattus norvegicus. The experiment in a line: Anti-inflammatory activity in Rattus norvegicus albino (rat) assessed as inhibition of carrageenan-induced paw edema at 10 mg/kg, po administered 30 min before carrageenan challenge measured after 3 hr.
Assay [9] deals with Mus musculus. The experiment in a line: Analgesic activity in Mus musculus (mouse) assessed as paw withdrawal latency time at 10 mg/kg, ip after 30 min. The settings on record: route intraperitoneal.
For assay [10], the system named is Rattus norvegicus. The experiment in a line: Anti-inflammatory activity in Rattus norvegicus albino (rat) assessed as inhibition of carrageenan-induced paw edema at 10 mg/kg, po administered 30 min before carrageenan challenge measured after 4 hr.
Assay [11] has as its system Rattus norvegicus. Kind of assay: Anti-inflammatory activity in Rattus norvegicus albino (rat) assessed as inhibition of carrageenan-induced paw edema at 10 mg/kg, po administered 30 min before carrageenan challenge measured after 2 hr.
The test system of assay [12] is Rattus norvegicus. Kind of assay: Anti-inflammatory activity in Rattus norvegicus albino (rat) assessed as inhibition of carrageenan-induced paw edema at 10 mg/kg, po administered 30 min before carrageenan challenge measured after 1 hr.

In the case of `O=C(O)CCC(=O)/C=C/c1cn(-c2ccccc2)nc1-c1ccc(Cl)cc1`, the inhibition in vivo (as a rule, the relative decrease from the control value, in per cent) at 50 mg/kg in the assay with Rattus norvegicus [1] stood at 6.32%; in the assay with Rattus norvegicus [2], 3.43%; with Rattus norvegicus [3], 8.64%; with Rattus norvegicus [5], 10.9%; with Rattus norvegicus [6] it was 2.27%. In addition, the Time in the assay on Mus musculus [4] is listed as 4.09 s.
As for `Cc1ccc(-c2nn(-c3ccccc3)cc2/C=C/C(=O)CCC(=O)O)cc1`, the inhibition in vivo at 50 mg/kg in the assay on Rattus norvegicus [1] came out at 11.5%; in the assay on Rattus norvegicus [2], 4.41%; in the assay with Rattus norvegicus [3] it was 13%; in the assay with Rattus norvegicus [5] it was 6.25%; in the assay on Rattus norvegicus [6] it was 3.79%. In the assay on Mus musculus [4], the Time worked out at 6.47 s.
With `NC(=O)c1ccccc1NC(=O)c1cn(-c2ccccc2)nc1-c1ccccc1`, the inhibition in vivo at 50 mg/kg with Rattus norvegicus [1] was 14.4%; in the assay with Rattus norvegicus [2] it was 17.6%; in the assay on Rattus norvegicus [3], 9.88%; with Rattus norvegicus [5] it was 13.5%; in the assay with Rattus norvegicus [6], -3.79%. The Time with Mus musculus [4] stood at 6.29 s.
Regarding `NC(=O)c1ccccc1NC(=O)c1cn(-c2ccccc2)nc1-c1ccc(Cl)cc1`, the inhibition in vivo at 50 mg/kg with Rattus norvegicus [1] was 3.45%; with Rattus norvegicus [2] it was 1.96%; with Rattus norvegicus [3], 9.26%; in the assay on Rattus norvegicus [5], 9.38%; with Rattus norvegicus [6], 15.2%. In addition, in the assay with Mus musculus [4], the Time was determined as 4.89 s.
As to `NC(=O)c1ccccc1OC(=O)c1cn(-c2ccccc2)nc1-c1ccc(Br)cc1`, the inhibition in vivo at 50 mg/kg in the assay on Rattus norvegicus [1] was determined as 8.6%; in the assay with Rattus norvegicus [2] it was 26%; in the assay with Rattus norvegicus [3], 6.14%; in the assay on Rattus norvegicus [5] it was 10.4%; in the assay on Rattus norvegicus [6] it was 3.09%. Besides, the Time with Mus musculus [4] is given as 7.4 s.
On to `CC(=O)Nc1ccc(OC(=O)c2cn(-c3ccccc3)nc2-c2ccc(Cl)cc2)cc1`, for which the inhibition in vivo at 50 mg/kg in the assay on Rattus norvegicus [1] turned out to be 16.7%; with Rattus norvegicus [2], 17.8%; with Rattus norvegicus [3] it was 16.1%; in the assay on Rattus norvegicus [5] it was 15.6%; with Rattus norvegicus [6], 3.79%. Also, the Time in the assay with Mus musculus [4] turned out to be 18.83 s.
Regarding `CC(=O)Nc1ccc(OC(=O)c2cn(-c3ccccc3)nc2-c2ccc(C)cc2)cc1`, the inhibition in vivo at 50 mg/kg in the assay on Rattus norvegicus [1] worked out at 6.32%; with Rattus norvegicus [2], 2.94%; in the assay with Rattus norvegicus [3], 3.7%; in the assay on Rattus norvegicus [5], 4.17%; with Rattus norvegicus [6] it was 9.09%. In the assay on Mus musculus [4], the Time is listed as 8.32 s.
Take `O=C(O)CCC(=O)/C=C/c1cn(-c2ccccc2)nc1-c1ccccc1`: the inhibition in vivo at 50 mg/kg in the assay on Rattus norvegicus [1] is 15.5%; in the assay on Rattus norvegicus [2] it was 27.9%; in the assay on Rattus norvegicus [3], 23.5%; with Rattus norvegicus [5], 13.5%; in the assay with Rattus norvegicus [6], 8.33%. Further, the Time in the assay on Mus musculus [4] was 18.51 s.
As to `COc1ccc2c(c1)c(CC(=O)O)c(C)n2C(=O)c1ccc(Cl)cc1` [INDOMETHACIN], the inhibition in vivo at 10 mg/kg with Rattus norvegicus [7] came to 12.9%; in the assay with Rattus norvegicus [8], 21.8%; in the assay on Rattus norvegicus [10], 24.7%; in the assay on Rattus norvegicus [11], 19.3%; with Rattus norvegicus [12] it was 30.9%. In the assay on Mus musculus [9], the Time is given as 10.5 s.
